Key:
Format in all cases: in vivo
soybean (Glycine max) = assay: Test C preemergence, plant response rating; conditions: Preemergence
Outline: (§1)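 Pre-emergence: seeds sown in loam soil–sand blend or silt loam and sprayed with test chemicals in a non-phytotoxic solvent mixture with surfactant. Post-emergence: plants 2 to 18 cm (1- to 4-leaf stage) in peat-based potting medium, same formulation. Greenhouse 13 to 15 d; visual rating 0 (no effect) to 100 (complete control) versus controls.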

[1] = tested on: oilseed rape (Brassica napus); assay: Test C preemergence, plant response rating; conditions: Preemergence
Outline: as §1

[2] = tested on: foxtail, giant (giant foxtail, Setaria faberii); assay: Test C preemergence, plant response rating; conditions: Preemergence
Outline: as §1

[3] = tested on: ryegrass, Italian (Italian ryegrass, Lolium multiflorum); assay: Test C preemergence, plant response rating; conditions: Preemergence
Outline: as §1

[4] = tested on: blackgrass (Alopecurus myosuroides); assay: Test C preemergence, plant response rating; conditions: Preemergence
Outline: as §1

[5] = tested on: ragweed (common ragweed, Ambrosia elatior); assay: Test C preemergence, plant response rating; conditions: Preemergence
Outline: as §1

[6] = tested on: crabgrass, large (large crabgrass, Digitaria sanguinalis); assay: Test C preemergence, plant response rating; conditions: Preemergence
Outline: as §1

corn (Zea mays) = assay: Test C preemergence, plant response rating; conditions: Preemergence
Outline: as §1

kochia (Kochia scoparia) = assay: Test A preemergence, visual injury rating; conditions: 0 to 100 scale (0 no effect, 100 complete control)
Outline: (§2)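 Scoring: eye-based comparison with untreated controls, 0 for no effect through 100 for complete control, at about day 10. Treatments: directed soil spray preemergence; foliar spray postemergence on 2–10 cm plants at the one- to two-leaf stage. Medium: loam soil with sand.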

[7] = tested on: giant foxtail (Setaria faberii); assay: Test A preemergence, visual injury rating; conditions: 0 to 100 scale (0 no effect, 100 complete control)
Outline: as §2

[8] = tested on: Italian ryegrass (Lolium multiflorum); assay: Test A preemergence, visual injury rating; conditions: 0 to 100 scale (0 no effect, 100 complete control)
Outline: as §2

[9] = tested on: ragweed (common ragweed, Ambrosia elatior); assay: Test A preemergence, visual injury rating; conditions: 0 to 100 scale (0 no effect, 100 complete control)
Outline: as §2

[10] = tested on: barnyardgrass (Echinochloa crus-galli); assay: Test A preemergence, visual injury rating; conditions: 0 to 100 scale (0 no effect, 100 complete control)
Outline: as §2

[11] = tested on: pigweed (Amaranthus retroflexus); assay: Test A preemergence, visual injury rating; conditions: 0 to 100 scale (0 no effect, 100 complete control)
Outline: as §2

[12] = tested on: ducksalad (Heteranthera limosa); assay: Test B flooded paddy test, plant response rating; conditions: 250 g ai/ha; Flood; scale of 0 to 100 where 0 is no effect and 100 is complete control; 13 to 15 days
Outline: (§3)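 In-water treatment: compound dosed into 3 cm flood over soil, water level unchanged throughout. Controls run alongside; visual assessment at day 13–15.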

rice (Oryza sativa) = assay: Test B flooded paddy test, plant response rating; conditions: 250 g ai/ha; Flood; scale of 0 to 100 where 0 is no effect and 100 is complete control; 13 to 15 days
Outline: as §3

[13] = tested on: barnyardgrass (Echinochloa crus-galli); assay: Test B flooded paddy test, plant response rating; conditions: 250 g ai/ha; Flood; scale of 0 to 100 where 0 is no effect and 100 is complete control; 13 to 15 days
Outline: as §3

[14] = tested on: sedge, umbrella (small-flower umbrella sedge, Cyperus difformis); assay: Test B flooded paddy test, plant response rating; conditions: 250 g ai/ha; Flood; scale of 0 to 100 where 0 is no effect and 100 is complete control; 13 to 15 days
Outline: as §3

`C=C(Br)COC(=O)c1c(Br)cccc1Oc1ncc(Cl)cn1` [Compound 61] was tested, and the “Plant response rating, Soybean” value (soybean (Glycine max); 125 g ai/ha, scale of 0 to 100) was 10, the “Plant response rating, Soybean” value (soybean (Glycine max); 31 g ai/ha, scale 0 to 100) was 20 and the “Plant response rating, Soybean” value (soybean (Glycine max); 62 g ai/ha, scale 0 to 100) was 20. For the same molecule, the “Plant response rating, Oilseed Rape” value ([1]; 125 g ai/ha, scale of 0 to 100) was 10, the “Plant response rating, Oilseed Rape” value ([1]; 16 g ai/ha, scale 0 to 100) was 0 and the “Plant response rating, Oilseed Rape” value ([1]; 31 g ai/ha, scale 0 to 100) was 0. For the same molecule, the “Plant response rating, Oilseed Rape” value ([1]; 62 g ai/ha, scale 0 to 100) was 0, the “Plant response rating, Foxtail, Giant” value ([2]; 62 g ai/ha, scale of 0 to 100) was 60 and the “Plant response rating, Foxtail, Giant” value ([2]; 125 g ai/ha, scale of 0 to 100) was 65. For the same molecule, the “Plant response rating, Foxtail, Giant” value ([2]; 16 g ai/ha, scale 0 to 100) was 0, the “Plant response rating, Foxtail, Giant” value ([2]; 31 g ai/ha, scale 0 to 100) was 50 and the “Plant response rating, Ryegrass, Italian” value ([3]; 125 g ai/ha, scale of 0 to 100) was 5. For the same molecule, the “Plant response rating, Ryegrass, Italian” value ([3]; 16 g ai/ha, scale 0 to 100) was 0, the “Plant response rating, Ryegrass, Italian” value ([3]; 31 g ai/ha, scale 0 to 100) was 0 and the “Plant response rating, Ryegrass, Italian” value ([3]; 62 g ai/ha, scale 0 to 100) was 0. For the same molecule, the “Plant response rating, Blackgrass” value ([4]; 62 g ai/ha, scale of 0 to 100) was 0, the “Plant response rating, Blackgrass” value ([4]; 125 g ai/ha, scale of 0 to 100) was 5 and the “Plant response rating, Blackgrass” value ([4]; 16 g ai/ha, scale 0 to 100) was 0. The “Plant response rating, Blackgrass” value ([4]; 31 g ai/ha, scale 0 to 100) was 0, the “Plant response rating, Ragweed” value ([5]; 125 g ai/ha, scale of 0 to 100) was 30 and the “Plant response rating, Ragweed” value ([5]; 16 g ai/ha, scale 0 to 100) was 0. The “Plant response rating, Ragweed” value ([5]; 31 g ai/ha, scale 0 to 100) was 0, the “Plant response rating, Ragweed” value ([5]; 62 g ai/ha, scale 0 to 100) was 5 and the “Plant response rating, Crabgrass, Large” value ([6]; 62 g ai/ha, scale of 0 to 100) was 75. For the same molecule, the “Plant response rating, Crabgrass, Large” value ([6]; 125 g ai/ha, scale of 0 to 100) was 90, the “Plant response rating, Crabgrass, Large” value ([6]; 16 g ai/ha, scale 0 to 100) was 0 and the “Plant response rating, Crabgrass, Large” value ([6]; 31 g ai/ha, scale 0 to 100) was 10. For the same molecule, the “Plant response rating, Corn” value (corn (Zea mays); 62 g ai/ha, scale of 0 to 100) was 10, the “Plant response rating, Corn” value (corn (Zea mays); 125 g ai/ha, scale of 0 to 100) was 0 and the “Plant response rating, Corn” value (corn (Zea mays); 16 g ai/ha, scale 0 to 100) was 0. The “Plant response rating, Corn” value (corn (Zea mays); 31 g ai/ha, scale 0 to 100) was 0, the “Kochia plant response rating” value (kochia (Kochia scoparia); 125 g ai/ha) was 90 and the “Kochia plant response rating” value (kochia (Kochia scoparia); 500 g ai/ha) was 100. The “Foxtail, Giant plant response rating” value ([7]; 125 g ai/ha) was 100, the “Foxtail, Giant plant response rating” value ([7]; 500 g ai/ha) was 100 and the “Ryegrass, Italian plant response rating” value ([8]; 125 g ai/ha) was 30. The “Ryegrass, Italian plant response rating” value ([8]; 500 g ai/ha) was 80, the “Ragweed plant response rating” value ([9]; 125 g ai/ha) was 0 and the “Ragweed plant response rating” value ([9]; 500 g ai/ha) was 20. For the same molecule, the “Barnyardgrass plant response rating” value ([10]; 125 g ai/ha) was 50, the “Barnyardgrass plant response rating” value ([10]; 500 g ai/ha) was 100 and the “Pigweed plant response rating” value ([11]; 125 g ai/ha) was 100. For the same molecule, the “Pigweed plant response rating” value ([11]; 500 g ai/ha) was 100, the “Plant response rating, Ducksalad” value [12] was 100 and the “Plant response rating, Rice” value (rice (Oryza sativa)) was 0. The “Plant response rating, Barnyardgrass” value [13] was 20 and the “Plant response rating, Sedge, Umbrella” value [14] was 100.
For `CCCC(=O)c1c(Br)cccc1Oc1ncc(Cl)cn1` [Compound 75], the “Plant response rating, Soybean” value (soybean (Glycine max); 125 g ai/ha, scale of 0 to 100) was 50, the “Plant response rating, Soybean” value (soybean (Glycine max); 16 g ai/ha, scale 0 to 100) was 0 and the “Plant response rating, Soybean” value (soybean (Glycine max); 31 g ai/ha, scale 0 to 100) was 0. For the same molecule, the “Plant response rating, Soybean” value (soybean (Glycine max); 62 g ai/ha, scale 0 to 100) was 10, the “Plant response rating, Oilseed Rape” value ([1]; 125 g ai/ha, scale of 0 to 100) was 40 and the “Plant response rating, Oilseed Rape” value ([1]; 16 g ai/ha, scale 0 to 100) was 0. For the same molecule, the “Plant response rating, Oilseed Rape” value ([1]; 31 g ai/ha, scale 0 to 100) was 0, the “Plant response rating, Oilseed Rape” value ([1]; 62 g ai/ha, scale 0 to 100) was 10 and the “Plant response rating, Foxtail, Giant” value ([2]; 62 g ai/ha, scale of 0 to 100) was 65. For the same molecule, the “Plant response rating, Foxtail, Giant” value ([2]; 125 g ai/ha, scale of 0 to 100) was 98, the “Plant response rating, Foxtail, Giant” value ([2]; 16 g ai/ha, scale 0 to 100) was 0 and the “Plant response rating, Foxtail, Giant” value ([2]; 31 g ai/ha, scale 0 to 100) was 25. For the same molecule, the “Plant response rating, Ryegrass, Italian” value ([3]; 125 g ai/ha, scale of 0 to 100) was 15, the “Plant response rating, Ryegrass, Italian” value ([3]; 16 g ai/ha, scale 0 to 100) was 0 and the “Plant response rating, Ryegrass, Italian” value ([3]; 31 g ai/ha, scale 0 to 100) was 5. The “Plant response rating, Ryegrass, Italian” value ([3]; 62 g ai/ha, scale 0 to 100) was 5, the “Plant response rating, Blackgrass” value ([4]; 62 g ai/ha, scale of 0 to 100) was 80 and the “Plant response rating, Blackgrass” value ([4]; 125 g ai/ha, scale of 0 to 100) was 75. For the same molecule, the “Plant response rating, Blackgrass” value ([4]; 16 g ai/ha, scale 0 to 100) was 0, the “Plant response rating, Blackgrass” value ([4]; 31 g ai/ha, scale 0 to 100) was 5 and the “Plant response rating, Ragweed” value ([5]; 125 g ai/ha, scale of 0 to 100) was 5. The “Plant response rating, Ragweed” value ([5]; 16 g ai/ha, scale 0 to 100) was 0, the “Plant response rating, Ragweed” value ([5]; 31 g ai/ha, scale 0 to 100) was 0 and the “Plant response rating, Ragweed” value ([5]; 62 g ai/ha, scale 0 to 100) was 0. The “Plant response rating, Crabgrass, Large” value ([6]; 62 g ai/ha, scale of 0 to 100) was 98, the “Plant response rating, Crabgrass, Large” value ([6]; 125 g ai/ha, scale of 0 to 100) was 98 and the “Plant response rating, Crabgrass, Large” value ([6]; 16 g ai/ha, scale 0 to 100) was 65. For the same molecule, the “Plant response rating, Crabgrass, Large” value ([6]; 31 g ai/ha, scale 0 to 100) was 85, the “Plant response rating, Corn” value (corn (Zea mays); 62 g ai/ha, scale of 0 to 100) was 0 and the “Plant response rating, Corn” value (corn (Zea mays); 125 g ai/ha, scale of 0 to 100) was 5. The “Plant response rating, Corn” value (corn (Zea mays); 16 g ai/ha, scale 0 to 100) was 0, the “Plant response rating, Corn” value (corn (Zea mays); 31 g ai/ha, scale 0 to 100) was 0 and the “Kochia plant response rating” value (kochia (Kochia scoparia); 125 g ai/ha) was 80. The “Kochia plant response rating” value (kochia (Kochia scoparia); 500 g ai/ha) was 100, the “Foxtail, Giant plant response rating” value ([7]; 125 g ai/ha) was 100 and the “Foxtail, Giant plant response rating” value ([7]; 500 g ai/ha) was 100. For the same molecule, the “Ryegrass, Italian plant response rating” value ([8]; 125 g ai/ha) was 80, the “Ryegrass, Italian plant response rating” value ([8]; 500 g ai/ha) was 100 and the “Ragweed plant response rating” value ([9]; 125 g ai/ha) was 0. The “Ragweed plant response rating” value ([9]; 500 g ai/ha) was 10, the “Barnyardgrass plant response rating” value ([10]; 125 g ai/ha) was 100 and the “Barnyardgrass plant response rating” value ([10]; 500 g ai/ha) was 100. The “Pigweed plant response rating” value ([11]; 125 g ai/ha) was 100, the “Pigweed plant response rating” value ([11]; 500 g ai/ha) was 100 and the “Plant response rating, Ducksalad” value [12] was 95. For the same molecule, the “Plant response rating, Rice” value (rice (Oryza sativa)) was 35, the “Plant response rating, Barnyardgrass” value [13] was 40 and the “Plant response rating, Sedge, Umbrella” value [14] was 95.

Source: patent US11053204B2, “Pyrimidinyloxy benzene derivatives as herbicides” (FMC Corporation, priority 2015, dated 2021)
